Measured values reported in patent publication US9834564B2, “Substituted quinolines as PDE-10 inhibitors” (priority 2010, dated 2017).

Key:
[1] = biological target: HEK293 cells over-expressing PDE-10A (Homo sapiens (Human), UniProt Q9Y233); experiment: whole cell PDE-10 assay, intracellular cGMP in HEK293 cells over-expressing PDE-10A; type: cell-based; conditions: concentration elevating intracellular cyclic nucleotide 300% above baseline; HEK293 over-expressing PDE-10A, 30 min compound, 200 μM sodium nitroprusside 2 min
Sequence of HEK293 cells over-expressing PDE-10A (Q9Y233 whole entry): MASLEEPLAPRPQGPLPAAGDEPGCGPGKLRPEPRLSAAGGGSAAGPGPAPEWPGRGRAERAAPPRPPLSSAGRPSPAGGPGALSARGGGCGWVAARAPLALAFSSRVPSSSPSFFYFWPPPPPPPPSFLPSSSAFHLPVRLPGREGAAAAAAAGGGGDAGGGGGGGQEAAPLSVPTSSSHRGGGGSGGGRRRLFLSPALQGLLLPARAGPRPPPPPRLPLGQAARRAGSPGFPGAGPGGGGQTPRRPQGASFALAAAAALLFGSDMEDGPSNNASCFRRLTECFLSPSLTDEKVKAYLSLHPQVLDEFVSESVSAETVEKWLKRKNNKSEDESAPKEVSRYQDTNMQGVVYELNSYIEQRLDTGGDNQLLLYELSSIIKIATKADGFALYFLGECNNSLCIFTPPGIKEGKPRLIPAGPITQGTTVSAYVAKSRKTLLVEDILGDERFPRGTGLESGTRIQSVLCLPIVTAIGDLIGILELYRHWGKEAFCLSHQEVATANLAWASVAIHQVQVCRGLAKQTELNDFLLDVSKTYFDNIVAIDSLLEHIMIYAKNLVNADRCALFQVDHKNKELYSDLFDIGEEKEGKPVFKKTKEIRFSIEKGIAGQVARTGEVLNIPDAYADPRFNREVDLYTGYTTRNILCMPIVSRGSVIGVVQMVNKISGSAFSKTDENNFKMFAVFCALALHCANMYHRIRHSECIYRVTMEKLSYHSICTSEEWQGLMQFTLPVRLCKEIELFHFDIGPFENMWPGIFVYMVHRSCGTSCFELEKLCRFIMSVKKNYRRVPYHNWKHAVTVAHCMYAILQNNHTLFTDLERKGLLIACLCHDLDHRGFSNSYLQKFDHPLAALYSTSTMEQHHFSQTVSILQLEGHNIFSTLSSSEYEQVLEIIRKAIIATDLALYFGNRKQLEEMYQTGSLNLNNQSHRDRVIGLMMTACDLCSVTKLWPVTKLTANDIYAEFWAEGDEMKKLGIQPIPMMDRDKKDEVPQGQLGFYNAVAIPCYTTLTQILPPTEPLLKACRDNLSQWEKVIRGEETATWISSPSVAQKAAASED

[2] = biological target: recombinant human PDE-10 enzyme (PDE-10A) (Homo sapiens (Human), UniProt Q9Y233); experiment: IMAP PDE Fluorescence Polarization assay, human PDE-10 inhibition (enzyme assay); type: biochemical; conditions: recombinant human PDE-10, fluorescein-labeled cAMP/cGMP substrate, 40 min at 37° C.
Sequence of recombinant human PDE-10 enzyme (PDE-10A) (Q9Y233 whole entry): as above

SMILES | PDE-10 EC300 (μM) [1] | IC50 [2]
c1coc(-c2c[nH]c(CCc3cnc4ccccc4n3)n2)c1 [Compound 72] | ++++ (IC50 or EC300<0.5 μM ++++) | < 0.5 µM
c1ccc2nc(CCc3nc(-c4ccsc4)c[nH]3)cnc2c1 [Compound 73] | ++++ (IC50 or EC300<0.5 μM ++++) | < 0.5 µM
Fc1ccccc1-c1c[nH]c(CCc2cnc3ccccc3n2)n1 [Compound 75] | ++++ (IC50 or EC300<0.5 μM ++++) | < 0.5 µM
Fc1cccc(-c2c[nH]c(CCc3cnc4ccccc4n3)n2)c1 [Compound 76] | ++++ (IC50 or EC300<0.5 μM ++++) | < 0.5 µM
Fc1cccc(-c2c[nH]c(CCc3cnc4ccccc4n3)n2)c1F [Compound 77] | ++++ (IC50 or EC300<0.5 μM ++++) | < 0.5 µM
c1ccc(-n2ccc(CCc3cnc4ccccc4n3)n2)cc1 [Compound 79] | ++ (1<IC50 or EC300<10 μM ++) | 0.5 to 1 µM
O=c1oc(CCc2nc(-c3ccccc3)c[nH]2)nc2ccccc12 [Compound 82] | + (IC50 or EC300>10 μM +) | 1 to 10 µM
c1ccc2nc(CCc3nc4c(ccc5ncccc54)[nH]3)cnc2c1 [Compound 102] | ++ (1<IC50 or EC300<10 μM ++) | < 0.5 µM
c1ccc2c(c1)ccc1[nH]c(CCc3cnc4ccccc4n3)nc12 [Compound 103] | + (IC50 or EC300>10 μM +) | < 0.5 µM
O=c1[nH]c(CCc2ncc(-c3ccccc3)o2)nc2ccccc12 [Compound 110] | + (IC50 or EC300>10 μM +) | > 10 µM
c1ccc(-c2c[nH]c(COc3cnc4ccccc4n3)n2)cc1 [Compound 120] | ++ (1<IC50 or EC300<10 μM ++) | < 0.5 µM
c1ccc(-c2c[nH]c(OCc3cnc4ccccc4n3)n2)cc1 [Compound 123] | ++ (1<IC50 or EC300<10 μM ++) | < 0.5 µM
c1ccc(-c2c[nH]c(Sc3cnc4ccccc4n3)n2)cc1 [Compound 124] | ++ (1<IC50 or EC300<10 μM ++) | < 0.5 µM
Cc1ncc(C)n2nc(CCc3ccc4ccccc4n3)nc12 [Compound 125, 2-(2-(5,8-Dimethyl-[1,2,4]triazolo[1,5-a]pyrazin-2-yl)ethyl)quinoline] | ++++ (IC50 or EC300<0.5 μM ++++) | < 0.5 µM
Cc1ncc(C)n2nc(CCc3cnc4ccccc4n3)nc12 [Compound 134] | ++ (1<IC50 or EC300<10 μM ++) | < 0.5 µM
Cc1ncc(C)n2nc(CCc3ccc4ccc5ncccc5c4n3)nc12 [Compound 142] | ++++ (IC50 or EC300<0.5 μM ++++) | < 0.5 µM
COc1nc2ccccc2nc1CCc1nc2c3cccnc3ccc2n1C [Compound 144] | ++ (1<IC50 or EC300<10 μM ++) | < 0.5 µM
c1ccc2nc(CCc3nc4ccc5ncccc5n4n3)cnc2c1 [Compound 145] | + (IC50 or EC300>10 μM +) | 0.5 to 1 µM
c1ccc2nc(CCc3nc4ccc5ncccc5n4n3)ccc2c1 [Compound 146] | ++++ (IC50 or EC300<0.5 μM ++++) | < 0.5 µM
Cn1c(CCc2ccc3ccccc3n2)nc2c3ncccc3ccc21 [Compound 155] | +++ (0.5<IC50 or EC300<1 μM +++) | < 0.5 µM
Cc1cc(C)nc(CCc2nc3c4cccnc4ccc3n2C)n1 [Compound 193] | ++++ (IC50 or EC300<0.5 μM ++++) | < 0.5 µM
Cc1ccc2nc(CCc3nc4c5cccnc5ccn4c3C)ccc2n1 [Compound 202] | ++++ (IC50 or EC300<0.5 μM ++++) | < 0.5 µM
Cn1c(CCc2ccc3ncccc3n2)nc2c3cccnc3ccc21 [Compound 204] | ++++ (IC50 or EC300<0.5 μM ++++) | < 0.5 µM
Cc1nc(CCc2nc3c4cccnc4ccc3n2C)nc(C)c1Cl [Compound 208] | ++++ (IC50 or EC300<0.5 μM ++++) | < 0.5 µM
Cc1nc(CCc2nc3c4cccnc4ccc3n2C)nc2c1CCC2 [Compound 210] | ++++ (IC50 or EC300<0.5 μM ++++) | < 0.5 µM
Cn1c(CCc2cnc3ccccc3n2)nc2c3c(ccc21)OCCO3 [Compound 211] | ++++ (IC50 or EC300<0.5 μM ++++) | < 0.5 µM
